According to ChEMBL document CHEMBL1143885, “Aryl-indolyl maleimides as inhibitors of CaMKIIdelta. Part 1: SAR of the aryl region” (Bioorg Med Chem Lett, 2008):
pIC50: −log10 of the molar value.

Each molecule was assayed against Calcium/calmodulin-dependent protein kinase type II subunit delta (Homo sapiens, UniProt Q13557) (assay: Inhibition of CaMK2delta).
Sequence of Calcium/calmodulin-dependent protein kinase type II subunit delta (Q13557 whole entry): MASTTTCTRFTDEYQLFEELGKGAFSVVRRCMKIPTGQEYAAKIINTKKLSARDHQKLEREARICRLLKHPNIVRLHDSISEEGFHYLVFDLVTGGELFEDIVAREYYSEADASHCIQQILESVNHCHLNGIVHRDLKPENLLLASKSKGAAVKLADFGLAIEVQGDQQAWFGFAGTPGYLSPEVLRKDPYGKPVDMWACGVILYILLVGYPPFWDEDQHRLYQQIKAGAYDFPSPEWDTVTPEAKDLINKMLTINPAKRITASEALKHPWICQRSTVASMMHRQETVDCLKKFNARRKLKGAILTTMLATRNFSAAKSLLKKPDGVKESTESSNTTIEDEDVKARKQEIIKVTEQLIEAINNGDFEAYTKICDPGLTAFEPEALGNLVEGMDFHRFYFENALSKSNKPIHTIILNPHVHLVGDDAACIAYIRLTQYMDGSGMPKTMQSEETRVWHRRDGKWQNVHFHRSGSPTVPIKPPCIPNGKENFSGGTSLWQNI

Compound | pIC50
CC(C)(C)OC(=O)NCCCn1cc(C2=C(c3csc4ccccc34)C(=O)NC2=O)c2ccccc21 | < 4.70
Cc1[nH]c2ccccc2c1C1=C(c2cn(CCCNC(=O)OC(C)(C)C)c3ccccc23)C(=O)NC1=O | 5.12
NCCCn1cc(C2=C(c3ccccn3)C(=O)NC2=O)c2ccccc21 | 5.80
NCCCn1cc(C2=C(c3ccncc3)C(=O)NC2=O)c2ccccc21 | 5.80
CN1C(=O)C(c2c[nH]c3ccc(Br)cc23)=C(c2cn(CCCN)c3ccccc23)C1=O | < 4.70
CN1C(=O)C(c2ccccc2)=C(c2cn(CCCN)c3ccccc23)C1=O | 4.82
NCCCn1cc(C2=C(c3ccc4ccccc4n3)C(=O)NC2=O)c2ccccc21 | < 4.70
NCCCn1cc(C2=C(c3ccnc4ccccc34)C(=O)NC2=O)c2ccccc21 | 6.20
NCCCn1cc(C2=C(c3cccc(Oc4ccccc4)c3)C(=O)NC2=O)c2ccccc21 | 5.77
NCCCn1cc(C2=C(c3cccnc3)C(=O)NC2=O)c2ccccc21 | 6.27
NCCCn1cc(C2=C(c3cccs3)C(=O)NC2=O)c2ccccc21 | 5.92
Cc1cccc(C2=C(c3cn(CCCN)c4ccccc34)C(=O)NC2=O)c1 | 6.55
CC(C)(C)OC(=O)NCCCn1cc(C2=C(c3cccs3)C(=O)NC2=O)c2ccccc21 | < 4.70
NCCCn1cc(C2=C(c3cccc(-c4ccccc4)c3)C(=O)NC2=O)c2ccccc21 | 5.88
NCCCn1cc(C2=C(c3ccc4ccccc4c3)C(=O)NC2=O)c2ccccc21 | 6.30
NCCCn1cc(C2=C(c3ccco3)C(=O)NC2=O)c2ccccc21 | 5.83
NCCCn1cc(C2=C(c3cccc4ccccc34)C(=O)NC2=O)c2ccccc21 | 6.54
CN1C(=O)C(c2csc3ccccc23)=C(c2cn(CCCN)c3ccccc23)C1=O | 5.63
